Reference: PubChem BioAssay (NCI)
Values joined by “and” are separate entries in the source; they are usually repeats but may differ in a detail not shown here. Equal values may be shown once.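 Five compound concentrations were applied to cells in 96-well plates for 48 hours; endpoints were derived by simple linear interpolation of the resulting dose-response curve. The concentration for 50% growth inhibition is given as GI50. Definition used: TGI = concentration required for complete inhibition of growth.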

Key:
Experiment in all cases: NCI tumour cell line growth inhibition, 48 h
HT29 colon = tested on: HT29 colon
SW-620 colon = tested on: SW-620 colon
LOX IMVI melanoma = tested on: LOX IMVI melanoma
HCC-2998 colon = tested on: HCC-2998 colon
OVCAR-5 ovarian = tested on: OVCAR-5 ovarian
OVCAR-8 ovarian = tested on: OVCAR-8 ovarian
T-47D breast = tested on: T-47D breast
DU-145 prostate = tested on: DU-145 prostate
M14 melanoma = tested on: M14 melanoma
HOP-62 NSCLC = tested on: HOP-62 NSCLC
SK-OV-3 ovarian = tested on: SK-OV-3 ovarian
NCI-H226 lung = tested on: NCI-H226 lung
SNB-19 CNS = tested on: SNB-19 CNS
HL-60(TB) leukemia = tested on: HL-60(TB) leukemia
SNB-75 CNS = tested on: SNB-75 CNS
U251 CNS = tested on: U251 CNS
MALME-3M melanoma = tested on: MALME-3M melanoma
SF-268 CNS = tested on: SF-268 CNS
MDA-MB-231 breast = tested on: MDA-MB-231 breast
UACC-62 melanoma = tested on: UACC-62 melanoma
786-0 renal = tested on: 786-0 renal
HCT-15 colon = tested on: HCT-15 colon
KM12 colon = tested on: KM12 colon
NCI-H522 lung = tested on: NCI-H522 lung
NCI/ADR-RES ovarian = tested on: NCI/ADR-RES ovarian
UO-31 renal = tested on: UO-31 renal
SF-539 CNS = tested on: SF-539 CNS
OVCAR-4 ovarian = tested on: OVCAR-4 ovarian
NCI-H460 lung = tested on: NCI-H460 lung
OVCAR-3 ovarian = tested on: OVCAR-3 ovarian
MCF7 breast = tested on: MCF7 breast
K-562 leukemia = tested on: K-562 leukemia
HOP-92 NSCLC = tested on: HOP-92 NSCLC
PC-3 prostate = tested on: PC-3 prostate
SR leukemia = tested on: SR leukemia
UACC-257 melanoma = tested on: UACC-257 melanoma
SN12C renal = tested on: SN12C renal
MDA-MB-435 = tested on: MDA-MB-435
HS 578T breast = tested on: HS 578T breast
CCRF-CEM leukemia = tested on: CCRF-CEM leukemia
SF-295 CNS = tested on: SF-295 CNS
NCI-H23 lung = tested on: NCI-H23 lung
TK-10 renal = tested on: TK-10 renal
BT-549 breast = tested on: BT-549 breast
HCT-116 colon = tested on: HCT-116 colon
SK-MEL-5 melanoma = tested on: SK-MEL-5 melanoma
RPMI-8226 leukemia = tested on: RPMI-8226 leukemia
A498 renal = tested on: A498 renal
SK-MEL-2 melanoma = tested on: SK-MEL-2 melanoma
IGROV1 ovarian = tested on: IGROV1 ovarian
COLO 205 colon = tested on: COLO 205 colon
SK-MEL-28 melanoma = tested on: SK-MEL-28 melanoma
MOLT-4 leukemia = tested on: MOLT-4 leukemia
RXF 393 renal = tested on: RXF 393 renal
EKVX NSCLC = tested on: EKVX NSCLC
CAKI-1 renal = tested on: CAKI-1 renal
A549 NSCLC = tested on: A549 NSCLC
ACHN renal = tested on: ACHN renal

## CNC(=O)N(C1=NCC(C)S1)c1ccc(C)c(C)c1 (stereo not drawn)
HT29 colon
  TGI: 12.7 µM
SW-620 colon
  TGI: > 100 µM
LOX IMVI melanoma
  TGI: > 48.5 µM
HCC-2998 colon
  TGI: 24.1 µM
OVCAR-5 ovarian
  TGI: > 100 µM
OVCAR-8 ovarian
  TGI: 45.7 µM
T-47D breast
  TGI: > 100 µM
DU-145 prostate
  TGI: > 100 µM
M14 melanoma
  TGI: > 42.3 µM
HOP-62 NSCLC
  TGI: > 100 µM
SK-OV-3 ovarian
  TGI: > 93 µM
NCI-H226 lung
  TGI: > 100 µM
SNB-19 CNS
  TGI: > 100 µM
HL-60(TB) leukemia
  TGI: 4.1 µM
SNB-75 CNS
  TGI: > 24.7 µM
U251 CNS
  TGI: > 36.8 µM
MALME-3M melanoma
  TGI: 55.2 µM
SF-268 CNS
  TGI: 40.6 µM
MDA-MB-231 breast
  TGI: > 100 µM
UACC-62 melanoma
  TGI: > 100 µM
786-0 renal
  TGI: > 48.8 µM
HCT-15 colon
  TGI: > 54 µM
KM12 colon
  TGI: > 55.7 µM
NCI-H522 lung
  TGI: 17.1 µM
NCI/ADR-RES ovarian
  TGI: > 20.4 µM
UO-31 renal
  TGI: > 78.7 µM
SF-539 CNS
  TGI: > 25.6 µM
OVCAR-4 ovarian
  TGI: > 100 µM
NCI-H460 lung
  TGI: 42.6 µM
OVCAR-3 ovarian
  TGI: 8.4 µM
MCF7 breast
  TGI: 26.6 µM
K-562 leukemia
  TGI: > 20.1 µM
HOP-92 NSCLC
  TGI: > 29.5 µM
PC-3 prostate
  TGI: > 55 µM
SR leukemia
  TGI: > 71.7 µM
UACC-257 melanoma
  TGI: > 78.1 µM
SN12C renal
  TGI: > 87.2 µM
MDA-MB-435
  TGI: 3.49 µM
HS 578T breast
  TGI: > 100 µM
CCRF-CEM leukemia
  TGI: > 62.8 µM
SF-295 CNS
  TGI: > 73.6 µM
NCI-H23 lung
  TGI: > 100 µM
TK-10 renal
  TGI: > 68.2 µM
BT-549 breast
  TGI: > 100 µM
HCT-116 colon
  TGI: > 76.8 µM
SK-MEL-5 melanoma
  TGI: 19.1 µM
RPMI-8226 leukemia
  TGI: 15.1 µM
A498 renal
  TGI: 17 µM
SK-MEL-2 melanoma
  TGI: 15.5 µM
IGROV1 ovarian
  TGI: > 100 µM
COLO 205 colon
  TGI: > 44.6 µM
SK-MEL-28 melanoma
  TGI: > 92.8 µM
MOLT-4 leukemia
  TGI: > 59.2 µM
RXF 393 renal
  TGI: 8.31 µM
EKVX NSCLC
  TGI: 70.4 µM
CAKI-1 renal
  TGI: 20.6 µM
A549 NSCLC
  TGI: > 100 µM
ACHN renal
  TGI: > 76.5 µM

## CN(C)c1ccc2nc3ccc(N)cc3[n+](-c3ccccc3)c2c1
HT29 colon
  GI50: 2.74 µM and 3.19 µM
  TGI: 16.1 µM and 16.2 µM
SW-620 colon
  GI50: 2.98 µM and 1.18 µM
  TGI: 31 µM and 12.2 µM
LOX IMVI melanoma
  GI50: 2.65 µM and 0.515 µM
  TGI: 18.3 µM
HCC-2998 colon
  GI50: 1.87 µM and 9.25 µM
  TGI: 16.1 µM and 41.8 µM
OVCAR-5 ovarian
  GI50: 13.3 µM
  TGI: > 81.7 µM
OVCAR-8 ovarian
  GI50: 2.02 µM and 1.07 µM
  TGI: > 66 µM and 7.69 µM
T-47D breast
  GI50: 0.457 µM and 0.662 µM
  TGI: 6.5 µM and 21 µM
DU-145 prostate
  GI50: 5.32 µM and 1.95 µM
  TGI: 33 µM and 3.96 µM
HOP-62 NSCLC
  GI50: 2.31 µM and 2.92 µM
  TGI: 18.9 µM and 14.4 µM
SK-OV-3 ovarian
  GI50: 18.2 µM and 4.73 µM
  TGI: 67.3 µM and > 100 µM
NCI-H226 lung
  GI50: 8.77 µM and 13 µM
  TGI: 42 µM and 70.1 µM
SNB-19 CNS
  GI50: 1.69 µM
  TGI: 47.1 µM
HL-60(TB) leukemia
  GI50: 0.578 µM
  TGI: 15.9 µM
SNB-75 CNS
  GI50: 2.44 µM and 2.8 µM
  TGI: 17 µM and 9.52 µM
U251 CNS
  GI50: 1.35 µM and 0.64 µM
  TGI: 34.4 µM and 6.5 µM
MALME-3M melanoma
  GI50: 1.57 µM and 0.56 µM
  TGI: 10.1 µM and 4.59 µM
SF-268 CNS
  GI50: 1.94 µM and 1.7 µM
  TGI: 20.9 µM and 19.7 µM
MDA-MB-231 breast
  GI50: 4.61 µM and 0.492 µM
  TGI: 31.5 µM and 17.1 µM
UACC-62 melanoma
  GI50: 2.04 µM and 1.85 µM
  TGI: 13 µM and 10.3 µM
786-0 renal
  GI50: 10.9 µM and 2.19 µM
  TGI: 33.6 µM and 49.2 µM
HCT-15 colon
  TGI: > 100 µM and 24 µM
KM12 colon
  GI50: 1.75 µM and 1.51 µM
  TGI: 10.2 µM and 26.1 µM
NCI-H522 lung
  GI50: 1.72 µM
  TGI: 10.5 µM
NCI/ADR-RES ovarian
  TGI: > 100 µM and 11.9 µM
UO-31 renal
  GI50: 23.6 µM and 4.98 µM
  TGI: > 100 µM and 24.8 µM
SF-539 CNS
  GI50: 2.61 µM and 0.332 µM
  TGI: 13.5 µM and 6.59 µM
OVCAR-4 ovarian
  GI50: 0.396 µM and 0.28 µM
NCI-H460 lung
  GI50: 2.53 µM and 1.9 µM
  TGI: 11.4 µM and 11.2 µM
OVCAR-3 ovarian
  GI50: 0.474 µM and 0.317 µM
  TGI: 9.02 µM and 12.7 µM
MCF7 breast
  GI50: 0.519 µM and 0.369 µM
  TGI: 30.3 µM and 3.15 µM
K-562 leukemia
  GI50: 1.51 µM and 0.424 µM
  TGI: > 100 µM and 68.7 µM
HOP-92 NSCLC
  GI50: 1.85 µM
  TGI: 8.24 µM
PC-3 prostate
  TGI: 31.2 µM and 3.22 µM
SR leukemia
  GI50: 2.44 µM and 0.533 µM
UACC-257 melanoma
  GI50: 0.757 µM and 0.705 µM
  TGI: > 25.2 µM and 3.33 µM
SN12C renal
  GI50: 1.92 µM and 1.34 µM
  TGI: 46 µM and 10.4 µM
MDA-MB-435
  GI50: 1.79 µM and 1.09 µM
  TGI: 8.77 µM and 2.91 µM
HS 578T breast
  GI50: 3.24 µM and 2.93 µM
  TGI: 28 µM and 56.2 µM
CCRF-CEM leukemia
  GI50: 4.09 µM and 1.25 µM
  TGI: > 100 µM and 21.7 µM
SF-295 CNS
  GI50: 1.75 µM and 0.584 µM
  TGI: 7.41 µM and 24.4 µM
NCI-H23 lung
  GI50: 1.73 µM and 0.461 µM
  TGI: 19.8 µM and 5.1 µM
TK-10 renal
  GI50: 3.87 µM and 2.48 µM
  TGI: 27.4 µM and 28.4 µM
BT-549 breast
  GI50: 2.46 µM and 0.584 µM
  TGI: 14.2 µM and 61.9 µM
HCT-116 colon
  GI50: 2.89 µM and 0.42 µM
  TGI: 20.4 µM and 2.08 µM
SK-MEL-5 melanoma
  GI50: 1.07 µM and 0.255 µM
  TGI: 3.02 µM and 0.827 µM
RPMI-8226 leukemia
  GI50: 0.482 µM and 0.177 µM
  TGI: 7.4 µM and 10 µM
A498 renal
  GI50: 3.94 µM and 19.6 µM
  TGI: 37.8 µM and > 100 µM
SK-MEL-2 melanoma
  GI50: 2.39 µM and 1.74 µM
  TGI: 6.16 µM and 11.1 µM
IGROV1 ovarian
  GI50: 3.31 µM and 1.74 µM
  TGI: 39.3 µM and 5.53 µM
COLO 205 colon
  GI50: 0.759 µM and 0.598 µM
  TGI: 2.99 µM and 2.75 µM
SK-MEL-28 melanoma
  GI50: 3.76 µM and 7.38 µM
  TGI: 20 µM and 37.7 µM
MOLT-4 leukemia
  GI50: 5.14 µM and 0.703 µM
RXF 393 renal
  GI50: 16.3 µM and 10.8 µM
  TGI: 67.5 µM and 26.6 µM
EKVX NSCLC
  GI50: 1.39 µM and 0.87 µM
  TGI: 23.1 µM and 23 µM
CAKI-1 renal
  TGI: 52.8 µM and 7.47 µM
A549 NSCLC
  TGI: > 100 µM and 11.6 µM
ACHN renal
  TGI: 76.9 µM and 31.8 µM
